Results taken from patent US20250034194A1, “INHIBITORS OF ABNORMAL PHOSPHORYLATION AND TAU PROTEIN AGGREGATION” (UNIVERSITE DE PICARDIE JULES VERNE, priority 2021, published 2025).
Blank lines part the entries; values can stand above or below the compound they belong to.

Experiments:
[1] = target: T1, tau protein (4R2N, 441 amino acids) (Homo sapiens, UniProt P10636); test: In vitro abnormal tau phosphorylation by GSK3β, competition with heparin (western blot); type: biochemical; settings: for ability to compete with heparin for abnormal tau phosphorylation by GSK3β / capacity to protect tau from its abnormal phosphorylation induced by heparin: molecule 60 μg/mL vs heparin 12 μg/mL; for ability to compete with heparin for abnormal tau phosphorylation by GSK3β: 1.5 to 6 h of reaction, AT270, Ser199/202; for capacity to protect tau from its abnormal phosphorylation induced by heparin: AT270 antibody
T1 construct: purchased Millipore (tau); Promega (GSK3β)
Description: Phosphorylation of tau protein is the most common post-translational modification to regulate tau activity and functions. The longest tau isoform (4R2N, 441 amino acids) containing 85 potential phosphorylation sites was used. In vitro phosphorylation of the tau protein is done by induction, on the one hand, (FIG. 5) and, on the other hand, according to a competition process between the LG2A molecules and heparin, conventionally used to induce abnormal tau phosphorylation in vitro (FIGS. 3, 4, 6, 7, 8, 9 and 10).
For abnormal tau phosphorylation tests, GSK3p, a kinase centrally involved in this process in the brains of subjects with Alzheimer's disease (AD), was used. Analysis of tau phosphorylation by GSK3b at sites characteristic of AD is possible by the western blot technique using specific antibodies that recognize abnormally phosphorylated sites in the brain or cerebrospinal fluid of AD subjects, such as the AT270 antibody which recognizes threonine 181 (Thr181), the PHF1 antibody which recognizes serines 396 and 404 (Ser396/Ser404), and the AT8 antibody, which recognizes the Ser199/Ser202/Thr205 site.
By competition: The tau protein (40 μg/mL) is phosphorylated by the GSK3β enzyme at 4 ng/mL (Promega) in the presence of ATP (Sigma-Aldrich) at 48 μM and protease inhibitors (Sigma-Aldrich, 1/100), in the buffer mentioned above. The ability of the LG2A molecules (60 μg/mL) to compete with heparin (12 μg/mL; Sigma-Aldrich) is evaluated. Thus if the signal in the presence of the molecules is less than that obtained with heparin alone, the molecules are then defined as “protectors” from abnormal tau phosphorylation.
In both systems (induction or competition), the tau protein is incubated at 37° C. with stirring in the presence of the different elements presented above. The reaction kinetics are monitored by taking 8 μL of the samples at 1.5 h, 3 h and 6 h of incubation. Loading buffer (Euromedex) and β-mercaptoethanol (Sigma-Aldrich) are added to each sample. The samples are then stored at −20° C. until analysis by western blot.
After denaturation of the samples by heating at 95° C. for 5 minutes, the samples are deposited simultaneously with the molecular weight marker (Precision Plus Protein™ Dual Color Standards; BIO-RAD) on a 10% acrylamide gel placed in an electrophoresis tank containing migration buffer (0.25 M Tris; 1.6 M Glycine; […]; pH 8.6).
The controls used for this phosphorylation experiment followed by western blot are: • the “native tau” protein, that is to say the non-phosphorylated tau protein. • the tau protein phosphorylated by GSK3b alone in the absence of heparin. • the tau protein phosphorylated in the presence of heparin, denoted “tau+heparin”. • the “external standard” corresponding to the tau protein phosphorylated in the presence of heparin for 3 h. This standard is carried out in an experiment independently of the phosphorylation experiments in the presence of LG2A compounds. It ensures that the western blot is carried out correctly.
Then the membrane is incubated overnight with stirring at +4° C. in a solution of PBS, 0.1% Tween and 1% milk containing the primary antibody specific for tau phosphorylation sites (AT270, ThermoScientific or S199-202, Millipore).
After incubation of the PVDF membrane in the chosen primary antibody, a succession of 3 washes of 5 minutes of the membrane is carried out in PBS and 0.1% Tween with stirring and the membrane is incubated for 1 h with stirring at room temperature in a solution of 1×PBS, 0.1% Tween and 1% milk containing the diluted secondary antibody (Jackson Immuno-Research).

SH-SY5Y = test: Cytotoxicity study, MTT test; type: cell-based; settings: differentiated SH-SY5Y; 0.1 to 100 μg/mL; 24 hours
Protocol: In order to evaluate the level of toxicity of these molecules according to their concentration in the cellular environment, an MTT test (3-(4,5-dimethylthiazol-2-yl)-2,5-diphenyl tetrazolium bromide) is carried out (FIGS. 11 and 12) upstream of the phosphorylation tests in cellulo.
SH-SY5Y (ATCC-CRL-2266) are developed in Dulbecco's Modified Eagle Complete Medium (DMEM-GlutaMAX™, Life Technologies) with 10% foetal bovine serum (FBS) and 1% penicillin/streptomycin in an incubator at 37° C. with 5% CO2.
For this, the SH-SY5Y cells are cultured in a 6-well plate at a cell density of 200,000 cells/well and are differentiated using retinoic acid (10 μM, Sigma Aldrich) for 5 days. On day 6, the cells are brought into contact with LG2A molecules at different concentrations (0.1, 1, 10 or 100 μg/mL), in a final volume of 2 mL. After 24 hours, MTT (5 μg/mL; Sigma-Aldrich) is added to the cell medium for 2 hours at 37° C. Then the medium is removed and 200 μL of pure dimethylsulfoxide (DMSO, Sigma-Aldrich) are added to each well. The entire contents of each well are transferred to a 96-well plate and the absorbance is measured at 562 nm using the Infinite M1000 spectrofluorometer (Tecan).

[2] = tested on: tau phosphorylation (S262 site) in SH-SY5Y cells; test: In cellulo tau phosphorylation test in the SH-SY5Y line (H2O2 stress induction); type: cell-based; settings: 24 hours, then H2O2
Protocol: The tau phosphorylation induction model on the SH-SY5Y cell line described in the Gly-CRRET laboratory article was used here (Sepulveda-Diaz et al., 2015).
In short, SH-SY5Y cells are seeded in 6-well plates and differentiated using retinoic acid (10 μM, Sigma Aldrich) for 5 days. On day 6, the cells are placed in the presence of the Mal16diS and Mal18diS molecules at different concentrations (1, 10 or 100 μg/mL), in a final volume of 2 mL simultaneously with a well not receiving molecules. After 24 hours, the molecules are removed and the stress inducer (H2O2, Sigma Aldrich) is added to the cell medium for 30 minutes. The cells are then rinsed with 1×PBS then lysed and recovered in RIPA buffer (Thermo Fisher). The protein extracts from the cells (10 μg) are then analysed by western blot according to the same procedure described above.
The tau phosphorylation site studied here is the S262 site (Thermo Fisher), normalized to the expression of the GAPDH protein (Sigma Aldrich). The bands are quantified using the Odyssey software of the LI-COR device allowing the p-tau/GAPDH ratio to be calculated for each of the conditions. The ratio obtained for each concentration of molecule is then expressed as a percentage of the ratio obtained for the control cells, i.e., not treated by the molecules. Thus a value less than 100% corresponds to protection provided by the molecules in this cellular model of tau phosphorylation induction.
The experiment was repeated at least 4 times for each molecule dose for the “Mal16diS” and “Mal18diS” molecules and at least twice for the “Cell16diS” and “Lac16diS” molecules. The mean and standard deviation of the replicates are shown in FIGS. 13 to 16; each of the values obtained for each dose is compared to that of the control without addition of molecule by means of a t-test. Statistical differences with p-value <0.05 and <0.001 are represented by “*” and “***” respectively.

[3] = target: T1, tau protein (4R2N, 441 amino acids); settings: GSK3β; FIG. 2, Sepulveda-Diaz et al, 2015; cited from earlier work

T1 sequence (P10636 1-441 isoform P10636-8): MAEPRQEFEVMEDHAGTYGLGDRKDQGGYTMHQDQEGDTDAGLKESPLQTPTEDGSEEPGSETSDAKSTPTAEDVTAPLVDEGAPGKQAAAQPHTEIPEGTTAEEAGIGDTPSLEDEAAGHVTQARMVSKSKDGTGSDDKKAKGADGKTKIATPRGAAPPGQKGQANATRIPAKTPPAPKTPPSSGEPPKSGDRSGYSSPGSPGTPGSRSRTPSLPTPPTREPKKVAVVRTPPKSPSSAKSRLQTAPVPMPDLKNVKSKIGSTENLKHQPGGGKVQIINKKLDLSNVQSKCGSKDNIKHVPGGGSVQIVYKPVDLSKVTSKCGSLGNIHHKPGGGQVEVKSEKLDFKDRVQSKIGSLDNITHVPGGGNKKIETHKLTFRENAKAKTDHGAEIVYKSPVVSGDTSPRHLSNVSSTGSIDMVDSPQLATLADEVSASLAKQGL

Compound: CCCCCCCCCCCCCCCCCCNC(=O)[C@H](O)[C@@H](O)[C@H](O[C@H]1OC(COS(=O)(=O)[O-])[C@@H](O)C(O)[C@@H]1O)[C@H](O)COS(=O)(=O)[O-].[Na+].[Na+] (stereo partly drawn) [Mal18diS, N-Octadecyl-6,6′-Di-O-Sulfo-D-Maltobionamide Disodium]
abnormal phosphorylation of tau (p-tau) revealed by AT270 and Ser199/202 antibodies ([1]; in presence of heparin, after 3 h of reaction): inhibited | ability to compete with heparin for abnormal tau phosphorylation by GSK3β [1]: total competition with heparin | cytotoxicity (MTT) (SH-SY5Y): not cytotoxic | reduction in tau phosphorylation (S262, p-tau/GAPDH) compared to untreated cells ([2]; 1 μg/mL): ~30% | reduction in tau phosphorylation (S262, p-tau/GAPDH) compared to untreated cells ([2]; 10 μg/mL): ~30% | reduction in tau phosphorylation (S262, p-tau/GAPDH) compared to untreated cells ([2]; 100 μg/mL): up to 60%

Compound: N-Hexadecyl-6,6′-Di-O-Sulfo-D-Cellobioamide Disodium [Cell16diS]
ability to compete with heparin for abnormal tau phosphorylation by GSK3β [1]: total competition with heparin | reduction in tau phosphorylation (S262, p-tau/GAPDH) compared to untreated cells ([2]; 1 μg/mL): approximately 34% | reduction in tau phosphorylation (S262, p-tau/GAPDH) compared to untreated cells ([2]; 10 μg/mL): 17% | reduction in tau phosphorylation (S262, p-tau/GAPDH) compared to untreated cells ([2]; 100 μg/mL): 20%

Compound: N-Hexadecyl-6,6′-Di-O-Sulfo-Lactobioamide Disodium [Lac16diS]
ability to compete with heparin for abnormal tau phosphorylation by GSK3β [1]: total competition with heparin | reduction in tau phosphorylation (S262, p-tau/GAPDH) compared to untreated cells ([2]; 1 μg/mL): 25% | reduction in tau phosphorylation (S262, p-tau/GAPDH) compared to untreated cells ([2]; 100 μg/mL): 54%

Compound: N-Octadecyl-6,6′-Di-O-Sulfo-Lactobioamide Disodium [Lac18diS]
ability to compete with heparin for abnormal tau phosphorylation by GSK3β [1]: total competition with heparin

ability to compete with heparin for abnormal tau phosphorylation by GSK3β [1]: do not compete with heparin
Compound: CCCCCCCCCCCCCCCCCCNC(=O)C(O)C(O)C(O)C(O)COC1OC(COS(=O)(=O)[O-])C(O)C(O)C1O.[Na+] (centres unmarked) [Mel18monoS, N-Octadecyl-6′-O-Sulfo-Melibioamide Sodium]

Compound: N-Hexadecyl-D-Glucuronyl-(α-1,4)-D-Xyluronamide [Mal16diOx]
capacity to protect tau from its abnormal phosphorylation induced by heparin [1]: less effective than disulphated maltobionamide compounds with the same chain length

Compound: N-Hexadecyl-6 or 6′-O-Sulfo-D-Maltobioamide Sodium [Mal16monoS]
capacity to protect tau from its abnormal phosphorylation induced by heparin [1]: slight loss of the protective capacity

Compound: N-Octadecyl-D-Glucuronyl-(α-1,4)-D-Xyluronamide [Mal18diOx]
ability to compete with heparin for abnormal tau phosphorylation by GSK3β [1]: does not compete with heparin

Compound: N-Octadecyl-Tri-O-Sulfo-D-Maltobioamide Trisodium [Mal18triS]
capacity to protect tau from its abnormal phosphorylation induced by heparin [1]: maintenance of this capacity to protect tau

capacity to protect tau from its abnormal phosphorylation induced by heparin [1]: retains its ability to protect tau
Compound: CCCCCCCCCCCCCCCCNC(=O)C(OS(=O)(=O)[O-])C(OS(=O)(=O)[O-])C(OC1OC(COS(=O)(=O)[O-])C(OS(=O)(=O)[O-])C(OS(=O)(=O)[O-])C1OS(=O)(=O)[O-])C(COS(=O)(=O)[O-])OS(=O)(=O)[O-].[Na+].[Na+].[Na+].[Na+].[Na+].[Na+].[Na+].[Na+] [Mal16perS, N-Hexadecyl-Per-O-Sulfo-D-Maltobioamide Sodium Salt]

Compound: heparin
phosphorylation of tau on sites characteristic of AD in the presence of heparin [3]: phosphorylation at all tau sites takes place

Compound: N-Octadecyl-6,6′-Di-O-Sulfo-D-Cellobioamide Disodium [Cell18diS]
ability to compete with heparin for abnormal tau phosphorylation by GSK3β [1]: total competition with heparin

Compound: N-Hexadecyl-Tri-O-Sulfo-D-Maltobioamide Trisodium [Mal16triS]
capacity to protect tau from its abnormal phosphorylation induced by heparin [1]: maintenance of this capacity to protect tau

ability to compete with heparin for abnormal tau phosphorylation by GSK3β [1]: do not compete with heparin
Compound: CCCCCCCCCCCCCCNC(=O)[C@H](O)[C@@H](O)[C@H](O)[C@H](O)CO[C@H]1O[C@H](COS(=O)(=O)[O-])[C@H](O)[C@H](O)[C@H]1O.[Na+] [Mel14monoS, N-Tetradecyl-6′-O-Sulfo-Melibioamide Sodium]

ability to compete with heparin for abnormal tau phosphorylation by GSK3β [1]: do not compete with heparin
Compound: CCCCCCCCCCCCCCCCNC(=O)[C@H](O)[C@@H](O)[C@H](O)[C@H](O)CO[C@H]1O[C@H](COS(=O)(=O)[O-])[C@H](O)[C@H](O)[C@H]1O.[Na+] [Mel16monoS, N-Hexadecyl-6′-O-Sulfo-Melibioamide Sodium]

Compound: N-Octadecyl-6 or 6′-O-Sulfo-D-Maltobioamide Sodium [Mal18monoS]
capacity to protect tau from its abnormal phosphorylation induced by heparin [1]: slight loss of the protective capacity
